The target in one data set is T1, dopamine D2 receptor (Rattus norvegicus, UniProt P61169).
T1 construct: Rat striatum was homogenized in 20 volumes of ice-cold 50 mM Tris-HCl buffer; from tissue; host or cells: rat striatum
The experiment in a line: D2 dopaminergic binding assay ([3H]spiperone, rat striatum). Particulars: read-out: Ki±SEM, D2. Here is the method:
(§1) All the new compounds were dissolved in 5% DMSO. The following specific radioligands and tissue sources were used: (a) serotonin 5-HT1A receptor, [^3H]8-OH-DPAT, rat brain cortex; (b) serotonin 5-HT2A receptor, [^3H]ketanserin, rat brain cortex; (c) serotonin 5-HT2C receptor, [^3H]mesulergine, rat brain cortex; (d) dopamine D2 receptor, [^3H]spiperone, rat striatum; (e) dopamine D3 receptor, [^3H]spiperone, rat olfactory tubercle (f) histamine H1 receptor, [^3H] pyrilamine, guinea pig cerebellum.
(§2) Total binding was determined in the absence of no-specific binding and compounds. Specific binding was determined in the presence of compounds. Non-specific binding was determined as the difference between total and specific binding.
(§3) Percentage of inhibition (%) = (total binding − specific binding)×100%/(total binding − nonspecific binding).
(§4) Ki values were calculated based on the Cheng and Prussoff equation: Ki = IC50/(1+C/Kd) where C represents the concentration of the hot ligand used and Kd its receptor dissociation constant were calculated for each labeled ligand. Mean Ki values and SEM were reported for at least three independent experiments.
Rat striatum was homogenized in 20 volumes of ice-cold 50 mM Tris-HCl buffer (pH 7.7) using an ULTRA TURAX homogeniser, and centrifuged twice for 10 min at 48,000 g with resuspension of the pellet in fresh buffer. The final pellet was resuspended in 50 mM ice-cold Tris-HCl containing 120 mM NaCl, 5 mM KCl, 2 mM CaCl2, 1 mM MgCl2, 0.1% ascorbic acid and 5 µM pargyline.
Total binding each assay tube was added 900 µL of the tissue suspension, 50 µL of 0.5 nM [^3H]spiperone (16.2 Ci/mmol; Perkin Elmer Life Sciences, Boston, MA, USA), 50 µL Tris-HCl buffer containing 120 mM NaCl, 5 mM KCl, 2 mM CaCl2, 1 mM MgCl2, 0.1% ascorbic acid and 5 µM pargyline.
Non-specific binding each assay tube was added 900 µL of the tissue suspension, 50 µL of 0.5 nM [^3H]spiperone, 50 µL of 10 µM (+)-butaclamol.
Specific binding each assay tube was added 900 µL of the tissue suspension, 50 µL of 0.5 nM [^3H]spiperone, 50 µL of new compounds or reference drug.
(§5) The incubation was followed by a rapid vacuum filtration through Whatman GF/B glass filters, and the filtrates were washed twice with 5 mL cold buffer and transferred to scintillation vials. Scintillation fluid (3.0 mL) was added and the radioactivity bound was measured using a Beckman LS 6500 liquid scintillation counter.

The target of data set [1] is T2, serotonin 5-HT2A receptor (Rattus norvegicus, UniProt P14842).
T2 construct: Rat cerebral cortex was homogenized in 20 volumes of ice-cold Tris-HCl buffer; from tissue; host or cells: rat brain (cerebral) cortex
T2 sequence (P14842 whole entry): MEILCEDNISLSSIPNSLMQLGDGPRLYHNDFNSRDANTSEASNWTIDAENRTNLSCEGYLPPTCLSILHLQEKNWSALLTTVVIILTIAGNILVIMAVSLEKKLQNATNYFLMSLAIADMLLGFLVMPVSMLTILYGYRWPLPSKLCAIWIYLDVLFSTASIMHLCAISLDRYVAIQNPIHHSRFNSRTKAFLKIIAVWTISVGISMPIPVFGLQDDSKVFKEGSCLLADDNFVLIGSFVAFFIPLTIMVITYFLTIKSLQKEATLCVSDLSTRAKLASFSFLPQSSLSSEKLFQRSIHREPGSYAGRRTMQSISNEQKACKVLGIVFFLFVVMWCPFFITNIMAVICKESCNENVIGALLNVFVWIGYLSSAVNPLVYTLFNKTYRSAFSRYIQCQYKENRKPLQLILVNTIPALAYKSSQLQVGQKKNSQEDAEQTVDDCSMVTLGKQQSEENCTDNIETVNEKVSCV
The experiment in a line: 5-HT2A binding assay ([3H]ketanserin, rat brain cortex). The following applies: read-out: Ki±SEM, 5HT2A. The method, then: as §1, §2, §3, §4
Rat cerebral cortex was homogenized in 20 volumes of ice-cold Tris-HCl buffer (50 mM, pH 7.7) using an ULTRA TURAX homogeniser, and centrifuged at 32000 g for 20 min. The resulting pellet was resuspended in the same quantity of the buffer centrifuged for 20 min. The final pellet was resuspended in 50 volumes of the Tris-HCl buffer.
Total binding each assay tube was added 900 µL of the tissue suspension, 50 µL of 0.6 nM [^3H]ketanserin (60.0 Ci/mmol, Perkin Elmer Life Sciences, Boston, MA, USA), 50 µL Tris-HCl buffer.
Non-specific binding each assay tube was added 900 µL of the tissue suspension, 50 µL of 0.6 nM [^3H]ketanserin, 50 µL of 10 µM methisergide.
Specific binding each assay tube was added 900 µL of the tissue suspension, 50 µL of 0.6 nM [^3H]ketanserin, […] of new compounds or reference drug.
as §5

The target in data set [2] is T3, serotonin 5-HT1A receptor (Rattus norvegicus, UniProt P19327).
T3 construct: Rat cerebral cortex was homogenized in 20 volumes of ice-cold Tris-HCl buffer; from tissue; host or cells: rat brain (cerebral) cortex
T3 sequence (P19327 1-422): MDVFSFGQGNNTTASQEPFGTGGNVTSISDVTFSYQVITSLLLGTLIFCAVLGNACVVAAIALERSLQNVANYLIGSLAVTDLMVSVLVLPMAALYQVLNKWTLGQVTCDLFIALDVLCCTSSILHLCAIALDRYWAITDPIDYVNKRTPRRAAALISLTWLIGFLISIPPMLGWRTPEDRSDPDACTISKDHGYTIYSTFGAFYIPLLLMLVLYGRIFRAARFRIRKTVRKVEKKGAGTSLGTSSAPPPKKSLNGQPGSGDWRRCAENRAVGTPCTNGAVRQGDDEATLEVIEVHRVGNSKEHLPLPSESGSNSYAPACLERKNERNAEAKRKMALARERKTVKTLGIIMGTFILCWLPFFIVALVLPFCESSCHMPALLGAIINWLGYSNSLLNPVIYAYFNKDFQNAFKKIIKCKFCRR
The experiment in a line: 5-HT1A binding assay ([3H]8-OH-DPAT, rat brain cortex). Particulars: read-out: Ki±SEM, 5HT1A. Here is the method:
as §1, §2, §3, §4
Rat cerebral cortex was homogenized in 20 volumes of ice-cold Tris-HCl buffer (50 mM, pH 7.7) using an ULTRA TURAX homogeniser, and was then centrifuged at 32000 g for 10 min. […] The final pellet was resuspended in Tris-HCl buffer containing 10 µM Pargyline, 4 mM CaCl2 and 0.1% ascorbic acid.
Total binding each assay tube was added 900 µL of the tissue suspension, 50 µL of 0.5 nM [^3H]8-OH-DPAT (187.4 Ci/mmol, Perkin Elmer Life Sciences, Boston, MA, USA), 50 µL Tris-HCl buffer containing 10 µM Pargyline, 4 mM CaCl2 and 0.1% ascorbic acid.
Non-specific binding each assay tube was added 900 µL of the tissue suspension, 50 µL of 0.5 nM [^3H]8-OH-DPAT, 50 µL of 10 µM serotonin.
Specific binding each assay tube was added 900 µL of the tissue suspension, 50 µL of 0.5 nM [^3H]8-OH-DPAT, 50 µL of new compounds or reference drug.
The incubation was followed by a rapid vacuum filtration through Whatman GF/B glass filters, and the filtrates were washed twice with 5mL cold buffer and transferred to scintillation vials. Scintillation fluid (3.0 mL) was added and the radioactivity bound was measured using a Beckman LS 6500 liquid scintillation counter.

Setting [3] is: [3H]spiperone, rat striatum, mean of three experiments, >10000 marked b: Ki not calculated, inhibition at 10 µM too low.
Setting [4] is: [3H]ketanserin, rat brain cortex, mean of three experiments, >10000 marked b: Ki not calculated, inhibition at 10 µM too low.
The mark [5] stands for this setting: [3H]8-OH-DPAT, rat brain cortex, mean of three experiments, >10000 marked b: Ki not calculated, inhibition at 10 µM too low.

Like-named read-outs stand apart in the source and are kept apart here.

T1 sequence (P61169 whole entry): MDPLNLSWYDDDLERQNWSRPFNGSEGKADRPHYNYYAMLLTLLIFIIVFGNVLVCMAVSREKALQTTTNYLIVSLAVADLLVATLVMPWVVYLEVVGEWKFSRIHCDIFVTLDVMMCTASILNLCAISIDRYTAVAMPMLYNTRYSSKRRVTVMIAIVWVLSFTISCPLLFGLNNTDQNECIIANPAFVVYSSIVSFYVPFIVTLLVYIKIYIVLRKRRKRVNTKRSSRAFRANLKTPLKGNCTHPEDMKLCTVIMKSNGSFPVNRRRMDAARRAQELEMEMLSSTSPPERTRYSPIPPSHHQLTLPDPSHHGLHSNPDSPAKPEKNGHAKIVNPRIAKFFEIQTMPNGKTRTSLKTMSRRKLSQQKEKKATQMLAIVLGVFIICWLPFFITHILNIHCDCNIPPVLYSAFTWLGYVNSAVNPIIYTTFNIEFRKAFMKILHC

As usually defined, the melting point is the temperature of the solid-liquid transition. Usually Ki stands for a measure of affinity in units of concentration, obtained from inhibition or displacement. `Cc1cccc(N2CCN(CCCSc3nnc(-c4ccccc4)o3)CC2)c1C` [Compound 7, 2-((3-(4-(2,3-dimethylphenyl)piperazin-1-yl)propyl)thio)-5-phenyl-1,3,4-oxadiazole] came in with a melting point of 86 to 88 °C. Also, the Ki at dopamine D2 receptor is above 10000 nM. In data set [1], the inhibitory constant (Ki) came to 374 ± 33 nM. Besides, the Ki in data set [2] is above 10000 nM.
`COc1ccccc1N1CCN(CCCSc2nnc(-c3ccccc3)o2)CC1` [Compound 8, 2-((3-(4-(2-methoxyphenyl)piperazin-1-yl)propyl)thio)-5-phenyl-1,3,4-oxadiazole]: the inhibitory constant (Ki) (at dopamine D2 receptor; in data set [1]; in data set [2]) was above 10000 nM in each case.
`Clc1cccc(N2CCN(CCCSc3nnc(-c4ccccc4)o3)CC2)c1Cl` [Compound 9, 2-((3-(4-(2,3-dichlorophenyl)piperazin-1-yl)propyl)thio)-5-phenyl-1,3,4-oxadiazole] returned a melting point of 82 to 84 °C. Moreover, the inhibition constant (Ki) at dopamine D2 receptor was above 10000 nM. For the same compound, the Ki in data set [1] was above 10000 nM. Moreover, the inhibitory constant (Ki) in data set [2] was above 10000 nM.
As to `FC(F)(F)c1cccc(N2CCN(CCCSc3nnc(-c4ccccc4)o3)CC2)c1` [Compound 10, 2-((3-(4-(3-(trifluoromethyl)phenyl)piperazin-1-yl)propyl)thio)-5-phenyl-1,3,4-oxadiazole], the melting point is 68 to 69 °C. In addition, the Ki on dopamine D2 receptor is above 10000 nM. In data set [1], the inhibition constant (Ki) was above 10000 nM. The Ki in data set [2] was above 10000 nM.
`c1ccc(-c2nnc(SCCCN3CCN(c4nsc5ccccc45)CC3)o2)cc1` [Compound 11, 2-((3-(4-(benzo[d]isothiazol-3-yl)piperazin-1-yl)propyl)thio)-5-phenyl-1,3,4-oxadiazole] gave a melting point of 69 to 71 °C. At dopamine D2 receptor, the Ki was 2570 ± 321 nM. For the same compound, in data set [1], the Ki is 61.4 ± 5.8 nM. In data set [2], the Ki is 19 ± 2.3 nM.
On the same counts, the results for `Fc1ccc2c(C3CCN(CCCSc4nnc(-c5ccccc5)o4)CC3)noc2c1` [Compound 12, 2-(3-(4-(6-fluorobenzo[d]isoxazol-3-yl)piperidin-1-yl)propylthio)-5-phenyl-1,3,4-oxadiazole] are 106 to 107 °C, 2970 ± 381 nM, 11.3 ± 1.2 nM and 18.9 ± 1.6 nM.
Take `COc1ccc(-c2nnc(SCCCN3CCN(c4nsc5ccccc45)CC3)o2)cc1` [Compound 13, 2-((3-(4-(benzo[d]isothiazol-3-yl)piperazin-1-yl)propyl)thio)-5-(4-methoxyphenyl)-1,3,4-oxadiazole]: the Ki was 96.7 ± 9.5 nM on dopamine D2 receptor (setting [3]), 17.2 ± 1.6 nM in data set [1] (setting [4]) and above 10000 nM in data set [2] (setting [5]).
For the compound `Clc1ccc(-c2nnc(SCCCN3CCN(c4nsc5ccccc45)CC3)o2)cc1` [Compound 15, 2-((3-(4-(benzo[d]isothiazol-3-yl)piperazin-1-yl)propyl)thio)-5-(4-chlorophenyl)-1,3,4-oxadiazole], the values for the Ki (at dopamine D2 receptor (setting [3]); in data set [1] (setting [4]); in data set [2] (setting [5])) were 126 ± 13.5 nM, 27.2 ± 2.8 nM and 14.2 ± 1.3 nM, respectively.
Turning to `FC(F)(F)c1ccc(-c2nnc(SCCCN3CCN(c4nsc5ccccc45)CC3)o2)cc1` [Compound 17, 2-((3-(4-(benzo[d]isothiazol-3-yl)piperazin-1-yl)propyl)thio)-5-(4-(trifluoromethyl)phenyl)-1,3,4-oxadiazole], the Ki on dopamine D2 receptor (setting [3]) was 487 ± 46.3 nM; in data set [1] (setting [4]), 50.8 ± 5.3 nM; in data set [2] (setting [5]), above 10000 nM.
`Fc1ccc(-c2nnc(SCCCN3CCN(c4nsc5ccccc45)CC3)o2)cc1` [Compound 19, 2-(3-(4-(benzo[d]isothiazol-3-yl)piperazin-1-yl)propylthio)-5-(4-fluorophenyl)-1,3,4-oxadiazole]: the Ki (at dopamine D2 receptor (setting [3]); in data set [1] (setting [4]); in data set [2] (setting [5])) was above 10000 nM each time.
As to `Fc1ccc(-c2nnc(SCCCN3CCC(c4noc5cc(F)ccc45)CC3)o2)cc1` [Compound 20, 2-(3-(4-(6-fluorobenzo[d]isoxazol-3-yl)piperidin-1-yl)propylthio)-5-(4-fluorophenyl)-1,3,4-oxadiazole], the Ki is 125 ± 12.4 nM on dopamine D2 receptor (setting [3]), 15.8 ± 1.3 nM in data set [1] (setting [4]) and 14.8 ± 1.5 nM in data set [2] (setting [5]).
Consider `c1ccc2c(-c3nnc(SCCCN4CCN(c5nsc6ccccc56)CC4)o3)cccc2c1` [Compound 21, 2-(3-(4-(benzo[d]isothiazol-3-yl)piperazin-1-yl)propylthio)-5-(naphthalen-1-yl)-1,3,4-oxadiazole], for which the figures for the Ki (on dopamine D2 receptor (setting [3]); in data set [1] (setting [4]); in data set [2] (setting [5])) were 138 ± 13.6 nM, 114 ± 12.1 nM and 346 ± 35.9 nM, respectively.
Turning to `c1csc(-c2nnc(SCCCN3CCN(c4nsc5ccccc45)CC3)o2)c1` [Compound 23, 2-(3-(4-(benzo[d]isothiazol-3-yl)piperazin-1-yl)propylthio)-5-(thiophen-2-yl)-1,3,4-oxadiazole], the Ki on dopamine D2 receptor (setting [3]) is above 10000 nM; in data set [1] (setting [4]), 54.1 ± 6.9 nM; in data set [2] (setting [5]) it was 450 ± 49.8 nM.
Consider `Fc1ccc2c(C3CCN(CCCSc4nnc(-c5cccs5)o4)CC3)noc2c1` [Compound 24, 2-(3-(4-(6-fluorobenzo[d]isoxazol-3-yl)piperidin-1-yl)propylthio)-5-(thiophen-2-yl)-1,3,4-oxadiazole], for which the Ki at dopamine D2 receptor (setting [3]) is 91 ± 11.2 nM; in data set [1] (setting [4]) it was 50.3 ± 6.5 nM; in data set [2] (setting [5]), 96.6 ± 10.3 nM.
Turning to `Fc1ccc2c(C3CCN(CCCSc4nnc(-c5ccncc5)o4)CC3)noc2c1` [Compound 26, 2-(3-(4-(6-fluorobenzo[d]isoxazol-3-yl)piperidin-1-yl)propylthio)-5-(pyridin-4-yl)-1,3,4-oxadiazole], the Ki on dopamine D2 receptor (setting [3]) is 260 ± 32.1 nM; in data set [1] (setting [4]) it was 59.2 ± 7.6 nM; in data set [2] (setting [5]), 60.6 ± 8.6 nM.

The values above are taken from PMC3340383, “Synthesis and Evaluation of a Series of 2-Substituted-5-Thiopropylpiperazine (Piperidine)-1,3,4-Oxadiazoles Derivatives as Atypical Antipsychotics” (PLoS ONE, 2012).
